Experiment [1] has as its system inducible nitric oxide synthase (iNOS). The experiment is described as follows: Inducible nitric oxide synthase (iNOS), cGMP accumulation in rat aorta smooth muscle cells. Conditions: RASMC induced with LPS, IL-1β or TNF-α; 0.1 or 1 μM EX-2. In kind it is cell-based. How it is done: Rat aorta smooth muscle cells (RASMC) were isolated from male rats (325-350 g) using the previously published procedures of Gelsterfer et al., Circ. Res. 62:749-756 (1988), which is incorporated herein by reference. Cells were positively identified as smooth muscle cells by indirect immunofluorescent staining for anti-α-actin, using a mouse anti-α-actin antibody and anti-mouse IgG FITC conjugate. Cells were grown in T-75 tissue culture flasks (Corning Delbelco's Glass, Inc.; Corning, NY) in 50% F12 and 50% Delbelco's Modified Eagle Medium (DMEM) supplemented with 10% bovine serum, 0.2 g/1 L-glutamine, penicillin (100 U/ml) and streptomycin (0.1 mg/ml).
Cells between passages 1-5 were pretreated with one of the following: vehicle, LPS (1 μg/ml), IL-1β (10 U/ml), or TNF-α (100 U/ml) for 6 hr. […] Accumulation of cGMP was determined following exposure to 0.3 mM 3-isobutyl-1-methyl xanthine (IBMX in the presence or absence of 1 mM L-arginine. Medium was then rapidly aspirated and 500 μl of 0.1N HCl was added to each well to stop the reactions and extract cGMP. Thirty min later, the HC1 extract was collected and cell remnants removed from the wells by adding hot 1.0N NaOH and scraping the well with a rubber policeman. The HCl extract was analyzed for cGMP by RIA and the NaOH-solubilized cell remnants were used for protein determination. […]

The subject of another experiment is TNF-α. In words: Reduction of LPS-induced TNF levels in mice (IP dosing). It is filed as in vivo. To be noted: 30 μg/mouse IP, one min before LPS 5 mg/kg IP; vs untreated control mice. How it is done: Balb/c female mice weighing approximately 20 g were placed into two groups, a control group and a treated group. Five mg/kg of LPS in 0.9% saline was administered by intraperitoneal (IP) injection into the control mice. Mice in the treated group were first injected IP with 30 μg EX-2 or 150 μg EX-3 in saline, then, one min after EX-2 or EX-3 was administered, the mice received LPS as described for the control group.
Blood samples were collected from the orbital sinus of treated and control mice at various times up to four hr after LPS was administered. The plasma was separated by centrifugation at 3000×g for 5 min, then diluted with four volumes of 1× phosphate buffer saline (pH 7.4) containing 1% bovine serum albumin. A 100 μl sample of serum was assayed by ELISA for TNF-α (Genzyme; Cambridge Mass.).
The mean (+/- SEM) TNF-α level in six mice from each group was determined and the percent reduction in TNF levels was calculated.

Experiment [2] has as its system kidney (cisplatin nephrotoxicity). In words: Cisplatin (CDDP) nephrotoxicity, renal function. In kind it is in vivo, rats. On the procedure: Male Sprague-Dawley were used to determine the effect of EX-2 on renal function after cisplatin (CDDP) administration. All rats were administered CDDP (4 mg/kg IP) and divided in 3 treatment groups (n=6/group). The groups were as follows: (1) Administration with vehicle and sterile PBS 3×/day; (2) Administration of EX-2 at a dose of 5 μg/kg, 3×/day; and (3) same as group 2 except the dose of EX-2 was 50 μg/kg, 3×/day. An infusion of ^3 H-inulin (0.6 μCi/ml in PBS) (2 ml/hr) was initiated at the end of the surgical preparation period. The continuous infusion was started 60 min prior to the renal function measurements and maintained to the end of the study. Glomerular filtration was assessed by inulin clearance techniques in two 30 min periods and renal blood flow (RBF) and renal plasma flow (RPF) were measured by inulin extraction techniques (arterial vs. renal vein inulin concentration) from left kidney renal vein blood sampled at the end of the second GFR measurement period. Urinary output was also monitored to determine both urine flow and fractional excretion of water. Urinary electrolyte (Na^+ and K^+) concentrations were analyzed by flame photometry (Model 51 Ca, Bacharch, inc.; Pittsburgh, Pa.) and urinary protein concentrations were determined. At the end of the measurement periods, the kidneys were removed for histological analysis.

The mark [3] stands for this setting: CDDP 4 mg/kg IP + 5 μg/kg EX-2 3×/day.
Setting [4] is: CDDP 4 mg/kg IP + 50 μg/kg EX-2 3×/day.

For “Ac-Nle-Gln-His-(D)Phe-Arg-(D)Trp-Gly-NH2 [EX-2]”, in experiment [1], the “% Reduction of induced increase, iNOS, cGMP (pmol/100 mg/15 min)” value is reported as 60%. The “Reduction in TNF levels” value with TNF-α came to 50%. In experiment [2] (setting [3]), the GFR was determined as 0.8 ± 0.2, the RBF was found to be 12.1 ± 2.0 and the RPF is reported as 6.5 ± 1.0 ml/mm. In experiment [2] (setting [4]), the GFR turned out to be 1.6 ± 0.4, the RBF was 16.8 ± 2.2 and the RPF is listed as 8.8 ± 1.1 ml/mm.

Source of the values: patent US5726156A, “Cytokine regulatory agents and methods of use in pathologies and conditions associated with altered cytokine levels” (Trega Biosciences, Inc., priority 1995, dated 1998).
